Source: article PMC11206987, “Investigation of the Efficacy of Benzylidene-3-methyl-2-thioxothiazolidin-4-one Analogs with Antioxidant Activities on the Inhibition of Mushroom and Mammal Tyrosinases” (Molecules, 2024)

What was measured:
[1] = In vitro ROS scavenging activity assay (SIN-1, DCFH-DA/esterase); conditions: test sample 40 µM; SIN-1 10 µM
Experimental: Third, the ability of analogs 1–8 to scavenge in vitro ROS was determined. Esterase was mixed with 2′,7′-dichlorodihydrofluorescein diacetate (DCFH-DA) to produce 2′,7′-dichlorodihydrofluorescein (DCFH). 3-Morpholinosydnonimine (SIN-1) generates ROS that react with DCFH, resulting in the formation of DCF (2′,7′-dichlorofluorescein). Therefore, the ability of analogs 1–8 to scavenge ROS was calculated by measuring the fluorescence of DCF with 10 µM SIN-1 and 40 µM test samples (Trolox (positive control) and analogs 1–8). […] The ability of analogs to scavenge ROS was examined as previously described. To a 15 mL tube were added DCFH-DA solution (1.25 mM; 50 µL), phosphate buffer (50 mM, 4.9 mL), and esterase (600 units/mL; 50 µL). The esterase–DCFH-DA solution was left in a dark place for 30 min. A 10 µL SIN-1 solution was added to each well of a black 96-well plate and mixed with phosphate buffer (180 µL) and Trolox (10 µL) or analogs 1–8 (10 µL). SIN-1, Trolox, and analogs 1–8 were treated at 10, 40, and 40 µM, respectively. After 5 min, 50 µL of the esterase–DCFH-DA solution was added to each well. The well fluorescence of DCF was acquired at 535 nm utilizing a microplate reader (Berthold Advances GmbH & Co., Bad Wildbad, Germany) using a 485 nm excitation wavelength. Trolox was used to compare ROS scavenging activity.

[2] = ABTS+ radical scavenging activity assay; conditions: 100 µM
Experimental: Second, the ability of BMTTZD analogs to scavenge ABTS^+ radicals was examined. ABTS^+ radicals were obtained via the oxidation of ABTS using potassium persulfate. All samples (Trolox (positive control) and 1–8) were tested at 100 µM.
The ability of the BMTTZD analogs to scavenge ABTS^+ radicals was assessed as previously described, with minor modifications. To a 50 mL tube were added 20 mL aqueous K2S2O8 solution (2.45 mM) and 20 mL aqueous ABTS solution (7 mM). The combined mixture was placed at 22 °C in a place without light for 17 h to generate the ABTS^+ radicals. For adequate absorbance control (0.70 ± 0.02 at 734 nm), methanol was added to the combined mixture. Test compounds (Trolox and analogs 1–8; 10 µL in 10% DMSO/90% EtOH [v/v] solution) were mixed with 90 µL ABTS^+ radical solution. After storage in a place without light for 2 min, the well absorbance at 734 nm was acquired for 10 min every 1 min by using a microplate reader (VersaMax®). All test compounds were tested at 100 µM. The activity of the analogs was compared to that of Trolox.

In the case of `Cc1c(C)c2c(c(C)c1O)CCC(C)(C(=O)O)O2` (centres unmarked) [Trolox, reference compound], the “effect on SIN-1-induced ROS levels” value [1] is reported as “significantly decreased the SIN-1-induced ROS contents” and the “ABTS^+ radical scavenging activity” value [2] is reported as 95%.
